In patent US20250025451A1, “TREATMENT OF CANCER WITH KDM4 INHIBITORS” (Celgene Corporation, priority 2021, published 2025):
Several values for one entry are separate records, joined by “and”; a condition that tells them apart may be missing. Identical values can stand only once. Like-named read-outs stand apart in the source and are kept apart here.

Key:
[1] = test system: OCI-LY19 human diffuse large B-cell non-Hodgkin's lymphoma xenograft; type: in vivo; conditions: for Median Tumor Volume Diff.: Day 21 minus Day 0
Experimental: The therapeutic in vivo efficacy of Compound 1 was evaluated in SU60 colorectal cancer, KYSE-150 esophageal cancer, COH70 triple-negative breast cancer, GXA-3036 gastric adenocarcinoma and OCI-LY19 Diffuse Large B-Cell Non-Hodgkin's Lymphoma xenograft models. In all studies, efficacy was determined based on percent tumor growth inhibition (TGI), differences in mean tumor growth, and statistical assessment of differences in net tumor volume distributions on the day of TGI analysis between control and treated animals. Tolerability was assessed based on differences in mean body weights between control and treated animals over the course of the study.
The in vivo efficacy and tolerability of Compound 1, administered orally as the lysine salt form suspended in a 0.5% MC vehicle, were evaluated in female C.B-17 severe combined immunodeficient (scid) mice inoculated subcutaneously with OCI-LY19 tumor cells established from the bone marrow of a patient with diffuse large B-cell non-Hodgkin's lymphoma (DLBCL), stage 4B, at relapse. Each mouse was inoculated subcutaneously in the right flank with 5×10^6 OCI-LY19 tumor cells (0.1 ml) suspended in 50% Matrigel. When the average tumor size reached ˜165 mm3, test animals were randomized into 6 groups consisting of 8 mice per group and treatments were initiated. […] Compound 1-treated mice received the Compound 1 lysine salt form suspended in vehicle at 5, 15, or 50 mg/kg QD or at 25 mg/kg BID on the 3 on/4 off schedule. TGI was determined on Day 21 as (1−Difftreated/Diffcontrol)×100. Individual tumors were measured on the days shown in two dimensions using a caliper, and the tumor volumes (TV) in mm3 were calculated using the formula: TV=0.5 a×b2, where a and b are the long and short tumor diameters in mm, respectively. Mean tumor volumes±SEM were calculated and plotted versus days of dosing (FIG. 15 left panel). Body weights were measured twice weekly. Body weights±SEM were calculated and plotted versus days of dosing (FIG. 15 right panel). The difference in mean net tumor volumes on the day of TGI analysis for treated versus control animals was evaluated statistically using one-way ANOVA followed by Dunnett's multiple comparisons test; Adjusted p-values are shown where a calculated probability (p)≤0.05 was considered statistically significant.

[2] = test system: SU34 patient-derived colon cancer organoid model; assay: organoid colony formation assay, SU34; type: cell-based, human
Experimental: The IC50 values for Compound 1 inhibition of colony formation and viability were determined for the patient-derived colon cancer organoid models: SU60, T002C, SU62, SU34, SU103, T03SC, and SU106, patient-derived pancreatic cancer organoid models PA016SF, PA0143F, T016P, and T028P, and a patient-derived breast cancer organoid model FS5S3.
Colony formation and viability assays were performed in multiwell plates seeded with organoids using an in vitro culture system composed of a Matrigel layer, media containing a defined set of growth factors, and co-culture with Wnt3 A-secreting mouse embryonic fibroblasts. Assays were initiated by adding either DMSO as a negative control, or an inhibitor panobinostatat 100×IC50 concentration as a positive control, or serially diluted Compound 1. The cultures were incubated for 168 or 144 hours after which the number of viable organoids in each test well was assessed respectively using one of two detection methods: CTG or staining with calcein-AM followed by imaging and colony counting. Colony count or viability of cells treated with compound 1 was expressed as a percent of the negative control. Aggregated Percent of Control values were plotted against the corresponding Compound 1 concentration and the absolute IC50 value was determined from a non-linear regression curve as the concentration where inhibition was 50% of the control.

[3] = test system: gene expression (PNUTS, ANK1, IBA57, SOWAHD, MF12-AS1, CECR1); assay: RNA-seq analysis of pharmacodynamic biomarkers in diffuse large B-Cell Lymphoma xenografts; type: in vivo
Description: RNA-seq and ChIP-seq analyses were employed to identify potential clinical pharmacodynamic (PD) biomarkers as molecular indicators for monitoring the effects of treatment with Compound 1.
[…] In the ChIP-seq analysis, 65 genes were identified to show direct KDM4C promoter occupancy.

[4] = test system: colorectal cancer PDX models; assay: culture-based viability inhibition assay, colorectal cancer PDX models; type: cell-based; conditions: for IC50: read-out: IC50 (range over sensitive models); for Sensitive to Compound 1 (models sensitive/tested): sensitive = IC50<1 μM
Experimental: A panel of 13 colorectal cancer PDX models and 6 colorectal cancer organoid PDX models were tested for their sensitivity to Compound 1 in culture-based viability inhibition assays. The MSI-H status of the studied colorectal cancer cell lines and their respective mutations of the MMR path genes are shown in FIG. 19.

[5] = in vivo at 2.5, 5, 7.5, 15 and 50 mg/kg, dose-dependent
[6] = MSI colorectal cancer PDX models
[7] = MSS colorectal cancer PDX models

In the case of CC(C)c1ccc(N(C)c2ccc3c(c2)OCC[C@H]3CNc2cnccc2C(=O)O)cc1 [Compound 1, 3-({[(4R)-7-{methyl[4-(propan-2-yl)phenyl]amino}-3,4-dihydro-2H-1-benzopyran-4-yl]methyl}amino)pyridine-4-carboxylic acid], the “% TGI” value ([1]; 5 mg/kg PO QD 3 on/4 off, Day 21, 5 mg/kg) is reported as 55%, the “Median Tumor Volume Diff.” value ([1]; 5 mg/kg PO QD 3 on/4 off) is reported as 920 mm^3 and the “% TGI” value ([1]; 15 mg/kg PO QD 3 on/4 off, Day 21, 15 mg/kg) is reported as 83%. For the same compound, the “Median Tumor Volume Diff.” value ([1]; 15 mg/kg PO QD 3 on/4 off) was 345 mm^3, the “% TGI” value ([1]; 25 mg/kg PO BID 3 on/4 off, Day 21, 25 mg/kg) was 102% and the “Median Tumor Volume Diff.” value ([1]; 25 mg/kg PO BID 3 on/4 off) was −32 mm^3. For the same compound, the “% TGI” value ([1]; 50 mg/kg PO QD 3 on/4 off, Day 21, 50 mg/kg) was 90%, the “Median Tumor Volume Diff.” value ([1]; 50 mg/kg PO QD 3 on/4 off) was 196 mm^3 and the “tolerability (mean body weights)” value ([1]; female C.B-17 scid mice, all Compound 1 regimens) was “well-tolerated”. The “Median Tumor Volume Day 21” value ([1]; female C.B-17 scid mice, lysine salt 5 mg/kg PO QD 3 on/4 off) was 1088 mm^3, the “Median Tumor Volume Day 21” value ([1]; female C.B-17 scid mice, lysine salt 15 mg/kg PO QD 3 on/4 off) was 512 mm^3 and the “Median Tumor Volume Day 21” value ([1]; female C.B-17 scid mice, lysine salt 25 mg/kg (free acid equivalents) PO BID 3 on/4 off) was 135 mm^3. For the same compound, the “Median Tumor Volume Day 21” value ([1]; female C.B-17 scid mice, lysine salt 50 mg/kg PO QD 3 on/4 off) was 361 mm^3, the IC50 ([2]; Homo sapiens, SU34 colorectal carcinoma model) was > 10000 nM and the IC50 ([2]; SU34 human colorectal carcinoma organoid, 144 hrs, Colony Counts) was > 10000 nM. The “number of genes up- or downregulated ≥2-fold” value ([3]; RNA-seq, 37.3 mg/kg, diffuse large B-Cell Lymphoma xenografts models) was 326, the “change of PNUTS, ANK1, and IBA57 gene expression” value [3, 5] was “downregulated” and the “change of SOWAHD, MF12-AS1, and CECR1 gene expression” value [3, 5] was “upregulated”. The IC50 [4, 6] was 1 to 14 nM, the “Sensitive to Compound 1 (models sensitive/tested)” value [4, 6] was 5 out of 5 and 5/5 and the IC50 [4, 7] was 3 to 270 nM. The “Sensitive to Compound 1 (models sensitive/tested)” value [4, 7] was 4 out of 8 and 4/8.
